Consider two compounds from PMC9716558, “A Chiral ^19F NMR Reporter of Foldamer Conformation in Bilayers” (Journal of the American Chemical Society, 2022).

Non-standard residues stand in square brackets, D forms with d. Residues, ends and D or L forms follow the SMILES beside them. *: point of attachment. d(αMeV) = CC(C)[C@@](C)(N)C(=O)O; αMeV = CC(C)[C@](C)(N)C(=O)O; X1 = C[C@@H](N*)C(F)(F)F; Cbz = O=C(OCc1ccccc1)*; Aib = CC(C)(N)C(=O)O

This series is described as follows: Maximum solubility of foldamer in chloroform (saturated solution, 1H NMR). Conditions: thermodynamic, dissolved in CDCl3 until saturated; concentration by 1H NMR against a known concentration of CH2Cl2 as internal reference. Type of series: physicochemical. The procedure:
9. Quantification of foldamer solubility and self-association in CHCl3
9.1 Experimental procedure (dilution)
Compounds 5d (L-αMeVal) and 5e (D-αMeVal) were dissolved in CDCl3 until saturated solutions were formed.
The initial concentration of each sample was measured using a known concentration of CH2Cl2 as an internal […]
Additional volumes of CDCl3 were added to the initial solution and the 1H NMR spectrum at each concentration […]
The binding isotherms were generated using an Excel spreadsheet macro developed by Sanderson.S7a The Solver add-in for Excel was used to calculate the best fit to the NMR data using the ‘GRG onlinear Solvin […]
The following equilibrium is used to calculate the binding isotherms:
Where Kdim is the microscopic association constant and n = 2.
The following equation is used to calculate the binding isotherm: […]
δfree is the free chemical shift of the host
δobs is the observed chemical shift […]
The concentration of the dimeric complex (H)2 is calculated iteratively by solving the following equations: […]
The concentration of free host is calculated according to the concentration difference […]
The propensity of the L-αMeVal-capped foldamer 5d and D-αMeVal-capped foldamer 5e to self-associate was investigated in chloroform by performing a dilution study,S7 which at the same time quantified the solubility of these compounds in this solvent. […]

For `CC(C)[C@](C)(NC(=O)OCc1ccccc1)C(=O)NC(C)(C)C(=O)NC(C)(C)C(=O)NC(C)(C)C(=O)NC(C)(C)C(=O)N[C@H](C)C(F)(F)F` [5d, Cbz(L-MeVal)Aib4(R-TFEA)] (Cbz-[αMeV][Aib][Aib][Aib][Aib]-X1), the “maximum solubility in CHCl3 / chloroform-d” value is 288 mM.
On to `CC(C)[C@@](C)(NC(=O)OCc1ccccc1)C(=O)NC(C)(C)C(=O)NC(C)(C)C(=O)NC(C)(C)C(=O)NC(C)(C)C(=O)N[C@H](C)C(F)(F)F` [5e, Cbz(D-MeVal)Aib4(R-TFEA)] (Cbz-[d(αMeV)][Aib][Aib][Aib][Aib]-X1), for which the “maximum solubility in CHCl3 / chloroform-d” value worked out at 50 mM.
